Values of other authors, collected in patent EP1464334A1 (priority 2003, dated 2004).
Structures can show the parent of a compound that is named as a salt. Where two headings read alike, the source gives them in different places.

Assays:
[1] = rabbit, in vivo, po
[2] = mouse, in vivo, po

In the case of `CCN(CC)CCCC(C)Nc1c2ccc(Cl)cc2nc2ccc(OC)cc12` (centres unmarked) [Chinacrinhydrochlorid], the LD50-Dosis [1] is given as 433 mg/kg and the LD50-Dosis [2] is given as 557 mg/kg.
